# Assays:
# [1] = biological target: TLR7 (Homo sapiens (Human), UniProt Q9NYK1); assay: TLR7 agonist bioactivity: induction of IFNα protein in pDC-enriched PBMC cultures (ELISA, 24 h); type: cell-based; conditions: less potent than IMDQ
# Protocol: Plasmacytoid dendritic cell (pDC)—enriched peripheral blood mononuclear cells (PBMCs) were prepared from the blood of a series of human donors (3-5 donors/experiment). PBMCs were isolated using Ficoll-Paque Premium® (GE Healthcare, Chicago Ill.) using methods well known to those in the art. pDCs were magnetically isolated from the total recovered PBMC population using CD304 (BDCA-4/Neuropilin-1) microbeads (Miltenyi Biotec, San Diego Calif.), according to the manufacturer's instructions. Isolated pDCs were then added back to between 1 and 2×10^8 of the corresponding donor's PBMCs for relative enrichment of this cell type. […] Culture supernatants were collected and interferon-alpha (IFNα) protein levels were measured by ELISA (MabTech, Cincinnati Ohio), according to the manufacturer's instructions.
# [2] = system: CT26 colon carcinoma; assay: Anti-tumor efficacy in combination with anti-PD-1 antibody in dual flank CT26 colon carcinoma-bearing mice; type: in vivo; conditions: 5,000 ng single intratumoral dose day 14, in combination with anti-PD-1
# Protocol: All in vivo procedures were conducted in accordance with approved IACUC protocols. The animals were housed in a facility that is accredited by the AALAC. Wild-type female Balb/c mice (15-20 g) were obtained from Envigo (Hayward, Calif.) and acclimated for 2-3 days prior to use.
# The pharmaceutical compositions were made using Compound No. 63-10 or 63-33 at final concentrations of 50,000 ng/mL in a manner similar to that described for Example B2-1. […] On day 0, mice were anesthetized with 1% isoflurane, and 80,000 CT26 tumor cells in 200 uL of RMPI-1640 culture media plus 2.5% fetal bovine serum were injected subcutaneously in both the right and left flanks. Tumors (left and right) were allowed to grow until day 8, when the right and left flank tumor sizes had reached approximately 35 mm^3, at which point mice were injected intraperitoneally with 250 μg of anti-PD-1 antibody formulated in phosphate buffered saline or a phosphate buffered saline vehicle control. The anti-PD-1 treatments were repeated on experimental days 12, 15, 19, 22, and 26. On experimental day 14, when the right (injected) and left (distal) flank tumors had reached approximately 100 mm^3, mice were randomized into treatment groups. […] Tumor sizes were measured twice weekly from days 14 through day 29 with calipers, with tumor volumes calculated using the formula: length, multiplied by width, multiplied by width, divided by 2.
# Chain of TLR7 (Q9NYK1 27-1049): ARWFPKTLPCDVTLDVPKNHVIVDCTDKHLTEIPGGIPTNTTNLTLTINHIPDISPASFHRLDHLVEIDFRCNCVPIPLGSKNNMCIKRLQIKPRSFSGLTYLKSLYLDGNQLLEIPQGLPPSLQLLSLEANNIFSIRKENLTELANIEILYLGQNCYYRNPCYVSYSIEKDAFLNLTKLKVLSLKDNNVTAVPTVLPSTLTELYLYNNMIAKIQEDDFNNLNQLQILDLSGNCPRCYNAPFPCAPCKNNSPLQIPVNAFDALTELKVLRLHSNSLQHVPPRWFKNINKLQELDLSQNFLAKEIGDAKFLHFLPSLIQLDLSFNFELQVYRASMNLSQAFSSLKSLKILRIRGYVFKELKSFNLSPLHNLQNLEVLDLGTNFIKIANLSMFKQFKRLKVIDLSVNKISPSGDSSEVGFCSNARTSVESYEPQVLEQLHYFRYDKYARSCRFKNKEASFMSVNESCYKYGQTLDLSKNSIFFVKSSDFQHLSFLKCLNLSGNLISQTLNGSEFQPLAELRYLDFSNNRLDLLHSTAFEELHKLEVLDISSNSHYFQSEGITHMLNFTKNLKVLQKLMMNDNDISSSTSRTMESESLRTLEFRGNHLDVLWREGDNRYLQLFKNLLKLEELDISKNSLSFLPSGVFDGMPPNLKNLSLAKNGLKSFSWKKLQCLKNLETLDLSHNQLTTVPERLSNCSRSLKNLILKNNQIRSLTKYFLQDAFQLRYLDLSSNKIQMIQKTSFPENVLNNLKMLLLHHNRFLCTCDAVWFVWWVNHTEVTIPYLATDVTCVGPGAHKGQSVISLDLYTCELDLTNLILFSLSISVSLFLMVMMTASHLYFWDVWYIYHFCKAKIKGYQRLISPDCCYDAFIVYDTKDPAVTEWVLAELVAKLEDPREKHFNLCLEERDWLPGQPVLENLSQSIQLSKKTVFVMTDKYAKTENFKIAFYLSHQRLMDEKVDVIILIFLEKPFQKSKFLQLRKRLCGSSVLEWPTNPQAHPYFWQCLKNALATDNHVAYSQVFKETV
compound,measurement,setting,value
"CCCCCCCCCCCCCC(=O)NCc1ccc(Cn2c(CCCC)nc3c(N)nc4ccccc4c32)cc1 [Compound No. 63-10, N-(4-((4-amino-2-butyl-1H-imidazo[4,5-c]quinolin-1-yl)methyl)benzyl)tetradecanamide]",fold loss of TLR7 agonist potency compared to Compound No. 63-00 (IMDQ),[1],2 fold
same,tumor growth inhibition in the injected tumor (right flank) compared to the anti-PD-1 treatment alone,[2],greater tumor growth inhibition
same,tumor growth inhibition in the distal tumor (left flank) compared to the anti-PD-1 treatment alone,[2]; day 29,no improvement
